Tests used:
[1] = Solubility of ibuprofen in oils; assay type: physicochemical
[2] = system: gastric mucosa; assay: Evaluation of gastric mucosa for lesions/erosions in rats after oral dosing; assay type: in vivo, Male Sprague Dawley rats
Protocol: Male Sprague Dawley rats were treated orally (one hour prior to right hind footpad injection of carrageenan) with vehicle, a commercial preparation of ibuprofen or ibuprofen formulated in either crystal or geode cochleates and were evaluated for effects of treatment on inflammatory edema. Animals were sacrificed five hours after dosing with test articles (four hours after carrageenan injection). Efficacy evaluation was based on weight difference due to inflammation-induced swelling in injected (right) vs. uninjected (left) paws. In addition, gastric mucosa were evaluated for differences in incidence and severity of mucosal congestion and erosions.

[3] = system: carrageenan-induced paw inflammation; assay: Rat carrageenan-induced paw inflammation (paw edema) assay; assay type: in vivo, Male Sprague Dawley rats; conditions: oral, one hour prior to carrageenan, paw weight difference four hours after carrageenan
Protocol: The in vivo efficacy if NSAID cochleates was tested in a rat carrageenan-induced paw inflammation assay.
Two types of ibuprofen-containing cochleates were prepared, crystal cochleates and geode cochleates. The cochleates were prepared with using soy phosphatidylserine as a negative phospholipid. To prepare the ibuprofen geode cochleate, the soy phosphatidylserine was combined with castor oil and ibuprofen and mixed to form a stable emulsion comprising a mixture of liposomes and lipid monolayers comprising the phosphatidylserine surrounding a hydrophobic domain (castor oil), with the ibuprofen dispersed within the castor oil. […] Crystal and geode cochleates containing 50, 10, 2, 0.4, or 0.1 mg/kg of ibuprofen were prepared. Male Sprague Dawley rats were treated orally (one hour prior to right hind footpad injection of carrageenan) with vehicle, a commercial preparation of ibuprofen or ibuprofen formulated in either crystal or geode cochleates and were evaluated for effects of treatment on inflammatory edema. Animals were sacrificed five hours after dosing with test articles (four hours after carrageenan injection). Efficacy evaluation was based on weight difference due to inflammation-induced swelling in injected (right) vs. uninjected (left) paws. In addition, gastric mucosa were evaluated for differences in incidence and severity of mucosal congestion and erosions.

[4] = rats, ibuprofen at 50 mg/kg oral

Average Size of Lesion [2, 4]: 7.2 ± 1.9
Number of Lesions per Animal [2, 4]: 4.1 ± 0.8
Number of Animals with Lesions ([2]; rats, ibuprofen at 50 mg/kg oral, five hours after dosing, groups of 10): 9
Structure (SMILES): CC(C)Cc1ccc(C(C)C(=O)O)cc1 (stereo not drawn) [Commercial ibuprofen, ibuprofen]
solubility in castor oil compared with other oils [1]: substantially more soluble in castor oil than other oils
rats with gastric lesions (incidence) ([2]; 10 mg/kg, oral): 1 of 10
rats with gastric lesions (incidence) ([2]; 10 mg/kg, oral, listed as commercial preparation of ibuprofen): Some rats
number of gastric lesions and total stomach lesion length (in words) ([2]; 50 mg/kg, oral): significantly increased numbers of gastric lesions and increased total stomach lesion length
rats with gastric lesions (incidence) ([2]; single-dose 50 mg/kg (highest dose), oral): 9 of 10
ED50 [3]: 30 mg/kg

— patent US20180185308A1, “COMPOSITIONS AND METHODS FOR TREATING INFLAMMATORY DISEASE OR CONDITIONS” (Matinas BioPharma Nanotechnologies, Inc., priority 2015, published 2018)
